Source: patent US20220062340A1, “IMMUNOTHERAPEUTIC METHODS AND COMPOSITIONS” (KING'S COLLEGE LONDON, priority 2018, published 2022)

What was measured:
CD62L on Tregs = test: CD62L expression following ex vivo expansion; assay type: cell-based, human; details: FIG. 9
Source text: To address the balance between regulatory and effector T cells in the lamina propria of patients with CD, we sought to develop a highly suppressive, phenotypically stable population of autologous ex vivo expanded Tregs that were licensed to traffic to the gut by high level expression of α4β7. These cells could then be utilized as an autologous cell-based therapy for CD. We compared the efficacy of ATRA with RAR568 at inducing α4β7, to determine which agent would be more suitable for downstream application in a clinical trial of Treg therapy for CD. As previously defined^22, our standard culture conditions used the CD4^+CD25^hiCD127^loCD45RA^+ nïave Treg subset, cultured in the presence of rapamycin (RAPA) and high dose IL-2. […] Additionally, cells cultured in the presence of RAR568 cumulatively expressed more α4β7 than those cultured in the presence of ATRA (95.89±1.93 vs 74.21±25.89, p=0.024; FIG. 2b). […] The expression of CD62L, required for homing to the lymph nodes and the effective interaction between integrin α4β7 and its ligand MAdCAM-1 was maintained following ex vivo expansion, irrespective of retinoid treatment (FIG. 9).

RARα = target: T1, RARα (Homo sapiens, UniProt P10276); test: Selectivity profile against human RARs (RARα agonism); assay type: biochemical
T1 sequence (P10276 1-462): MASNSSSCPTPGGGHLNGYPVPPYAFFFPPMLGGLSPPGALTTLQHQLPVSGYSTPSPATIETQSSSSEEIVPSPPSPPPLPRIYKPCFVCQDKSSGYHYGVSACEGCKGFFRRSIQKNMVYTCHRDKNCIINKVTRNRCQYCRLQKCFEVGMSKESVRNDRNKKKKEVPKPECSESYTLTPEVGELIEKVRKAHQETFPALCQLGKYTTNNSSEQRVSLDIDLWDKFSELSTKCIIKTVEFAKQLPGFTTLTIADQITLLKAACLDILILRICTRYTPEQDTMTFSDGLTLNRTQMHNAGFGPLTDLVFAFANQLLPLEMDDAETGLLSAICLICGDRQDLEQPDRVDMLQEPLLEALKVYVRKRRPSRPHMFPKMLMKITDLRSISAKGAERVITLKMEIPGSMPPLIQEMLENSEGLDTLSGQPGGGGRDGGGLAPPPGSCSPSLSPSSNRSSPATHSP

[1] = test system: human foetal small bowel xenografts; test: C.B-17 SCID mouse human intestinal xenotransplant model, Treg trafficking; assay type: in vivo
Experimental: Mice are injected with anti-asialo GM1 antibody at day −2 prior to transfer in order to deplete natural killer (NK) cells. On the day of Treg transfer, mice were treated with Tregs that were either expanded with Rapamycin alone or with the addition of RAR568. Mice also received 1000IU of rhlL-2 IP on the day of Treg transfer, to support the Treg in circulation. After three days in circulation, the presence of CFSE labelled Tregs was assessed by FACS in digested xenograft samples and immunofluoresence on frozen sections. […] Induction of α4β7 is functionally relevant in vivo (e) Control XG, no Tregs, (f) XG from mouse treated with Rapa Tregs (g) XG from mouse treated with Rapa+RAR568 Tregs.
The C.B-17 SCID mouse human intestinal xenograft model has been previously described^28,29. Institutional Review Board (IRB) and Institutional Animal Care and Use Committee (IACUC) approvals were obtained prospectively (Ethics Committee for Animal Experimentation, Hebrew University of Jerusalem; MD-11-12692-4 and the Helsinki Committee of the Hadassah University Hospital; 81-23/04/04). Tregs were labelled with CFSE (Invitrogen) prior to transfer, as per manufacturer's instructions. Xenografts were processed as per LPMC digestion protocol. CFSE positive cells were detected by flow cytometry. Additionally, CFSE positive cells were detected by immunofluorescence on frozen sections from treated xenografts.
Fresh xenograft sections were fixed and stored in OCT. Fixed cryostat sections were blocked with 20% fetal calf serum (FCS) and stained with rat anti human CD45 (Invitrogen) and mouse antihuman FOXP3 (Biolegend), followed by donkey anti-rat AF594 (Invitrogen) and donkey anti-mouse NL637 (RnD Systems).
To assess if the induction of α4β7 was functionally relevant in vivo, cells treated with RAR568 or cells expanded under standard conditions were fluorescently labelled and transferred into a SCID mouse xenografted with human fetal intestinal small bowel by intra-venous injection. Inflammation was induced in the xenografts with Mycobactrium Avium Paratuberculosis (MAP). […]

Effector T cells (Teff) = test: Treg suppression assay (proliferation of CFSE-labelled Teff); assay type: cell-based, human; details: lowest (8:1) Teff:Treg titration, FIG. 2e
Experimental: Effector T cells (Teff) were labelled with carboxyfluorescein succinimidyl ester (CFSE, Invitrogen) according to standard protocols. Cells were washed with phosphate buffered saline (PBS) to remove excess protein. Cells were then incubated with a 1 μM/L CFSE solution in the dark at room temperature for 4 minutes. The reaction was then quenched with 9 ml of complete medium.
Teff were activated with anti-CD3/anti-CD28 micro beads at a bead: Teff ratio of 0.02:1. 1×10^5 Teff were then cultured either alone or with Tregs in serial dilutions. The ratios of Teff: Treg were 1:1, 2:1, 4:1, and 8:1. This was done in X-VIVO-15 and proliferation rates were assessed by flow cytometry after 5 days of incubation.
Percentage suppression (S) of proliferation was calculated using the following formula:
Where c=percentage of proliferating precursors in the presence of Tregs and d=percentage of proliferating precursors in the absence of Tregs.

SMILES: CCOc1c(Cl)cc(C(=O)Nc2ccc(C(=O)O)c(C)c2)cc1OC(C)C [RAR568]
- expression of CD62L following expansion (CD62L on Tregs): not affected
- EC50 (RARα): 590 pM
- Treg trafficking to xenografts ([1]; 72 hours following i.v. transfer of agonist-treated Tregs, compared to Tregs expanded under standard conditions): significantly more likely to traffic to xenografts
- Treg trafficking to inflamed xenografts ([1]; MAP-induced inflammation, agonist-treated Tregs vs standard conditions): significantly more RAR568-treated cells trafficked to the inflamed xenografts
- presence of CFSE labelled FOXP3+ Tregs in cryosections from inflamed xenografts ([1]; immunofluorescence, FIG. 5g): evident
- Suppressive ability of expanded Tregs (Effector T cells (Teff)): highly suppressive even at the lowest (8:1) titration
